Biological target: human GLP1R (Homo sapiens, UniProt P43220)
Experiment: Human GLP1R DERET internalization assay
Assay type: cell-based
Details: HEK293-SNAP-hGLP1R-GloSensor cells; for EC50: mean n=2; for Emax: relative to GLP1(7-36)
Summary of the method: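 HEK293 cells stably expressing SNAP-tagged hGLP1R, labelled with SNAP-Lumi-Tb, then exposed at 37 °C to 3-fold compound dilutions (top 30 μM) with 25 μM fluorescein. Donor/acceptor TR-FRET ratio read every 30 min. EC50 and Emax from 4-parameter fits, normalised to the GLP1(7-36) EC100 (top 1 μM) and buffer-only EC0 wells.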

Chain of human GLP1R (P43220 24-463): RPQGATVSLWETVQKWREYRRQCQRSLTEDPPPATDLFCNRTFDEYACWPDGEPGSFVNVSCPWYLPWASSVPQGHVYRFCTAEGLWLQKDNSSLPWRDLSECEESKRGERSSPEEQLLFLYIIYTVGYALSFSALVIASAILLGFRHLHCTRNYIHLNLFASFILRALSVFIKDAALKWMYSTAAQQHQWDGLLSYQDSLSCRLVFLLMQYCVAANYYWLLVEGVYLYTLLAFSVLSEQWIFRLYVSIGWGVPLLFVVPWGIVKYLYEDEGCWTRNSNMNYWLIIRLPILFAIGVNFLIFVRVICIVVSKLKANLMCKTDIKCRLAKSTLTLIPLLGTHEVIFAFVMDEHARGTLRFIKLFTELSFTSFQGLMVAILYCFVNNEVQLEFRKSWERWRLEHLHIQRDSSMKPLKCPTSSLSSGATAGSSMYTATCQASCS

Compound	EC50 [nM]	Emax [%]
Cc1nc(CN2CCC(c3cccc4c3O[C@@](C)(c3ccc(Cl)cc3F)O4)CC2)n(C[C@@H]2CCO2)c1/C=C/C(=O)O [Compound C-5, (E)-3-(2-((4-((S)-2-(4-chloro-2-fluorophenyl)-2-methylbenzo[d][1,3]dioxol-4-yl)piperidin-1-yl)methyl)-4-methyl-1-(((S)-oxetan-2-yl)methyl)-1H-imidazol-5-yl)acrylic acid]	89	58
C[C@]1(c2ccc(Cl)cc2F)Oc2cccc(C3CCN(Cc4nc(/C=C/C(=O)O)cn4C[C@@H]4CCO4)CC3)c2O1 [Compound C-2, (E)-3-(2-((4-((S)-2-(4-chloro-2-fluorophenyl)-2-methylbenzo[d][1,3]dioxol-4-yl)piperidin-1-yl)methyl)-1-(((S)-oxetan-2-yl)methyl)-1H-imidazol-4-yl)acrylic acid]	> 30000	5
C[C@]1(c2ccc(Cl)cc2F)Oc2cccc(C3CCN(Cc4ncc(/C=C/C(=O)O)n4C[C@@H]4CCO4)CC3)c2O1 [Compound C-1, (E)-3-(2-((4-((S)-2-(4-chloro-2-fluorophenyl)-2-methylbenzo[d][1,3]dioxol-4-yl)piperidin-1-yl)methyl)-1-(((S)-oxetan-2-yl)methyl)-1H-imidazol-5-yl)acrylic acid]	336	67
C[C@]1(c2ccc(Cl)cc2F)Oc2cccc(C3CCN(Cc4nc(C(F)(F)F)c(C(=O)O)n4C[C@@H]4CCO4)CC3)c2O1 [Compound C-7, 2-((4-((S)-2-(4-chloro-2-fluorophenyl)-2-methylbenzo[d][1,3]dioxol-4-yl)piperidin-1-yl)methyl)-1-(((S)-oxetan-2-yl)methyl)-4-(trifluoromethyl)-1H-imidazole-5-carboxylic acid]	> 30000	3

Reference: patent US20240182456A1, “2-((4-((S)-2-(4-CHLORO-2-FLUOROPHENYL)-2-METHYLBENZO[D][1,3]DIOXOL-4-YL)PIPERIDIN-1-YL)METHYL)-1-(((S)-OXETAN-2-YL)METHYL)-1H-IMIDAZOLE DERIVATIVES AS ACTIVATORS OF THE GLP1 RECEPTOR FOR THE TREATMENT OF OBESITY” (Novartis AG, priority 2021, published 2024)
